Reference: patent US6525021B1 (priority 1998, dated 2003)
Non-standard residues stand in square brackets, D forms with d. Residues, ends and D or L forms follow the SMILES beside them. *: point of attachment. X1 = CC(=O)N[C@@H]1[C@@H](O[C@@H]2O[C@H](CO)[C@H](O)[C@H](O)[C@H]2O)[C@@H](O)[C@@H](CO)O[C@@H]1*; pGlu = O=C1CC[C@@H](C(=O)O)N1

Legend:
[1] = mouse, in vivo
[2] = mouse, in vivo; remark: listed apart in the source

| Compound | motor impairment on rotorod compared to vehicle [1] | antinociceptive doses relative to doses for locomotor impairment or hypothermia [2] | doses causing long-lasting motor impairment, as multiple of ED50 [2] | duration of motor impairment [2] | time of maximal locomotor impairment post i.t. injection [2] | TD50, rotorod test of minimal motor impairment [2] | time after which motor impairment resolved [2] |
| --- | --- | --- | --- | --- | --- | --- | --- |
| CC[C@H](C)[C@H](NC(=O)[C@H](Cc1ccc(O)cc1)NC(=O)[C@@H]1CCCN1C(=O)[C@H](CCCCN)NC(=O)[C@H](CCCCN)NC(=O)[C@@H](NC(=O)[C@H](C)NC(=O)[C@H](CC(N)=O)NC(=O)[C@H](CO)NC(=O)CNC(=O)CNC(=O)[C@H](CCC(=O)O)NC(=O)[C@H](CCC(=O)O)NC(=O)[C@H](CO)NC(=O)[C@@H]1CCC(=O)N1)[C@@H](C)O)C(=O)N[C@@H](CC(C)C)C(=O)O [Thr10-contulakin-G] (HELM PEPTIDE1{[Glp].S.E.E.G.G.S.N.A.T.K.K.P.Y.I.L}$$$$V2.0) | no motor impairment | approximately equal doses | ≥ 10 fold | 2 to 3 h | 15 min |  |  |
| CC[C@H](C)[C@H](NC(=O)[C@H](Cc1ccc(O)cc1)NC(=O)[C@@H]1CCCN1C(=O)[C@H](CCCCN)NC(=O)[C@H](CCCCN)NC(=O)[C@@H](NC(=O)[C@H](C)NC(=O)[C@H](CC(N)=O)NC(=O)[C@H](CO)NC(=O)CNC(=O)CNC(=O)[C@H](CCC(=O)O)NC(=O)[C@H](CCC(=O)O)NC(=O)[C@H](CO)NC(=O)[C@@H]1CCC(=O)N1)[C@@H](C)O[C@H]1O[C@H](CO)[C@H](O)[C@H](O[C@@H]2O[C@H](CO)[C@H](O)[C@H](O)[C@H]2O)[C@H]1NC(C)=O)C(=O)N[C@@H](CC(C)C)C(=O)O [contulakin-G] ([pGlu]SEEGGSNAT(X1)KKPYIL-OH) |  | 10-100 fold | ≥ 100 fold |  | 15 min | 10 to 20 pmol | 5 h |
